ChEMBL document CHEMBL1149066, “Esperamicin P, the tetrasulfide analog of esperamicin A1” (J Nat Prod, 1994)
≈ marks a conversion by molar mass, not a printed value. Calls of active or inactive are those of the source. The calls are words filed in the database; no cut-off is given here.

Key:
[1] = system: HCT-116; experiment: Cytotoxicity against human HCT116 cells; type: functional, cell-based
[2] = system: A549; experiment: Cytotoxicity against […]-resistant human A549 cells; type: functional, cell-based
[3] = system: Enterococcus faecalis; experiment: Antimicrobial activity against Enterococcus faecalis A25707 by serial twofold dilution method; type: functional
[4] = system: Proteus vulgaris; experiment: Antimicrobial activity against Proteus vulgaris A21559 by serial twofold dilution method; type: functional
[5] = system: P388; experiment: Antitumor activity against mouse P388 cells in iv dosed in vivo system; type: functional, organism-based
[6] = system: Staphylococcus aureus; experiment: Antimicrobial activity against Staphylococcus aureus A9537 by serial twofold dilution method; type: functional
[7] = system: Pseudomonas aeruginosa; experiment: Antimicrobial activity against Pseudomonas aeruginosa A20235 by serial twofold dilution method; type: functional
[8] = system: Escherichia coli; experiment: Antimicrobial activity against Escherichia coli A9751 by serial twofold dilution method; type: functional
[9] = system: B16; experiment: Cytotoxicity against mouse B16-PRIM cells; type: functional, cell-based
[10] = system: Staphylococcus aureus; experiment: Antimicrobial activity against Staphylococcus aureus A20698 by serial twofold dilution method; type: functional
[11] = system: Enterococcus faecalis; experiment: Antimicrobial activity against Enterococcus faecalis A20688 by serial twofold dilution method; type: functional
[12] = system: Staphylococcus aureus; experiment: Antimicrobial activity against Staphylococcus aureus A24407 by serial twofold dilution method; type: functional
[13] = system: P388; experiment: In vivo antitumor activity against mouse P388 cells at 1 to 3 ug/kg, ip; type: functional
[14] = system: Enterococcus faecalis; experiment: Antimicrobial activity against Enterococcus faecalis A25708 by serial twofold dilution method; type: functional
[15] = system: Escherichia coli; experiment: Antimicrobial activity against Escherichia coli A20697 by serial twofold dilution method; type: functional
[16] = system: Klebsiella pneumoniae; experiment: Antimicrobial activity against Klebsiella pneumoniae A9664 by serial twofold dilution method; type: functional
[17] = system: Escherichia coli; experiment: Antimicrobial activity against Escherichia coli A15119 by serial twofold dilution method; type: functional
[18] = Cytotoxicity against human HCT/VP35 cells; type: functional, cell-based
[19] = system: Klebsiella pneumoniae; experiment: Antimicrobial activity against Klebsiella pneumoniae A20468 by serial twofold dilution method; type: functional
[20] = system: Pseudomonas aeruginosa; experiment: Antimicrobial activity against Pseudomonas aeruginosa A9843 by serial twofold dilution method; type: functional
[21] = system: A549; experiment: Cytotoxicity against human A549 cells; type: functional, cell-based

C=C(OC)C(=O)Nc1cc(OC)c(OC)cc1C(=O)O[C@H]1C[C@H](O[C@@H]2C(=O)C(NC(=O)OC)=C3/C(=C\CSSSSC)[C@]2(O)C#C/C=C\C#C[C@@H]3O[C@@H]2O[C@H](C)[C@@H](NO[C@H]3C[C@H](O)[C@H](SC)[C@@H](C)O3)[C@H](O)[C@H]2O[C@H]2C[C@H](OC)[C@@H](NC(C)C)CO2)O[C@@H](C)[C@H]1O [ESPERAMICIN P] showed an IC50 [1] of under 0.002 µg/mL, an IC50 [2] of 0.01 µg/mL (≈ 7.37 nM) and an MIC [3] of 0.002 µg/mL (≈ 1.47 nM). For the same compound, the MIC [4] was 0.13 µg/mL (≈ 95.8 nM), the Activity [5] was “inactive” and the MIC [6] was 0.001 µg/mL (≈ 0.737 nM). It also gave an MIC [7] of 0.13 µg/mL (≈ 95.8 nM), an MIC [8] of 0.016 µg/mL (≈ 11.8 nM) and an IC50 [9] of over 0.002 µg/mL. It also gave an MIC [10] of 0.001 µg/mL (≈ 0.737 nM), an MIC [11] of 0.002 µg/mL (≈ 1.47 nM) and an MIC [12] of 0.001 µg/mL (≈ 0.737 nM). For the same compound, the T/C [13] was 145%, the MIC [14] was 0.002 µg/mL (≈ 1.47 nM) and the MIC [15] was 0.25 µg/mL (≈ 184 nM). The MIC [16] was 1 µg/mL (≈ 737 nM), the MIC [17] was 0.25 µg/mL (≈ 184 nM) and the IC50 [18] was under 0.002 µg/mL. The MIC [19] was 1 µg/mL (≈ 737 nM), the MIC [20] was 0.25 µg/mL (≈ 184 nM) and the IC50 [21] was 0.01 µg/mL (≈ 7.37 nM).
For C=C(OC)C(=O)Nc1cc(OC)c(OC)cc1C(=O)O[C@H]1C[C@H](O[C@@H]2C(=O)C(NC(=O)OC)=C3/C(=C\CSSSC)[C@]2(O)C#C/C=C\C#C[C@@H]3O[C@@H]2O[C@H](C)[C@@H](NO[C@H]3C[C@H](O)[C@H](SC)[C@@H](C)O3)[C@H](O)[C@H]2O[C@H]2C[C@H](OC)[C@@H](NC(C)C)CO2)O[C@@H](C)[C@H]1O, the Activity [5] was “Active”.
